Where two headings read alike, the source gives them in different places. Blank lines part the entries; values can stand above or below the compound they belong to.
Columns and labels:
MV-4-11 cells = assay: AML cell viability, CellTiter-Glo, MV-4-11 cells; assay type: cell-based; conditions: Homo sapiens
Protocol: MV4-11 cells were obtained from ATCC and grown in IMDM supplemented with 10% FBS. The cells were maintained at 37° C. under 5% CO2. […] The luminescence was normalized to that of DMSO-treated samples. IC50 values were obtained using three-parameter non-linear regressions using Prism (GraphPad). […] Cell viability was measured using the CellTiter-Glo reagent after 44 hours of treatment. […] MV4-11 cells were obtained from ATCC and grown in IMDM supplemented with 10% FBS. The cells were maintained at 37° C. under 5% CO2. […] Cell viability was measured using the CellTiter-Glo reagent after 44 hours of treatment.

GSPT1 = GSPT1 (Homo sapiens, UniProt P15170+Q96SW2); assay: cell-based; conditions: read-out: GSPT1 degradation classification
[1] = MV4-11, MV-4-11 cells, CellTiter-Glo, 44 hours of treatment, TABLE 1, read-out: Cell viability classification
[2] = MV4-11, 44 h, read-out: Cell viability classification
[3] = MV4-11, MV-4-11 cells, 1 μM, 6 hours, Western Blot, % reduction of GSPT1 compared to DMSO, normalized to GAPDH
[4] = MV4-11, MV-4-11 cells, CellTiter-Glo, 44 hours of treatment, TABLE 5, read-out: Cell viability classification (MV-4-11)

Chain of GSPT1 (P15170 whole entry): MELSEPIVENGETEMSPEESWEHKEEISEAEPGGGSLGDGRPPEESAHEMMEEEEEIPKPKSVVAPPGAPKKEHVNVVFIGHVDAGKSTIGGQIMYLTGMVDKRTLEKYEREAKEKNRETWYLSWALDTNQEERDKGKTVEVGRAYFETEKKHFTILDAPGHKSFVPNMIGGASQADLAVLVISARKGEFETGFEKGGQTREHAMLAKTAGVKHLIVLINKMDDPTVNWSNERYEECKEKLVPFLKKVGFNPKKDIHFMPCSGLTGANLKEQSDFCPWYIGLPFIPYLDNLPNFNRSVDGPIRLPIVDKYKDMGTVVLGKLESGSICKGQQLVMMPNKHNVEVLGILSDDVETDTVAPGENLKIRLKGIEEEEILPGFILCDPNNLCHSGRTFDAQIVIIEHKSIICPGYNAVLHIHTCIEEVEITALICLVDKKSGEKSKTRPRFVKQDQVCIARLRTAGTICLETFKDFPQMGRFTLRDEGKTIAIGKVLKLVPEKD
Chain of GSPT1 (Q96SW2 whole entry): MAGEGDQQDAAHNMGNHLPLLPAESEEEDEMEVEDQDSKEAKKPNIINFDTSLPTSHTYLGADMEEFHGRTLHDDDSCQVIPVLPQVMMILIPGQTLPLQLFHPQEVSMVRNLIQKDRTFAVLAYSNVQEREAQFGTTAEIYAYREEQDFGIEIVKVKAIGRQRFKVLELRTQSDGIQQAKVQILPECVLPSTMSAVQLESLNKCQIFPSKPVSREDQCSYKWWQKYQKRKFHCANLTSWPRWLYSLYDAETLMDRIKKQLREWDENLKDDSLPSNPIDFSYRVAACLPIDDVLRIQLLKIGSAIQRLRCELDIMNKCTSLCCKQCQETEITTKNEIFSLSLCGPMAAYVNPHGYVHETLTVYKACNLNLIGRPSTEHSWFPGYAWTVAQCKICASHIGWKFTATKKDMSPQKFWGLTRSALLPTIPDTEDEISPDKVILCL
Chain of GSPT1 (Q16531 whole entry partner): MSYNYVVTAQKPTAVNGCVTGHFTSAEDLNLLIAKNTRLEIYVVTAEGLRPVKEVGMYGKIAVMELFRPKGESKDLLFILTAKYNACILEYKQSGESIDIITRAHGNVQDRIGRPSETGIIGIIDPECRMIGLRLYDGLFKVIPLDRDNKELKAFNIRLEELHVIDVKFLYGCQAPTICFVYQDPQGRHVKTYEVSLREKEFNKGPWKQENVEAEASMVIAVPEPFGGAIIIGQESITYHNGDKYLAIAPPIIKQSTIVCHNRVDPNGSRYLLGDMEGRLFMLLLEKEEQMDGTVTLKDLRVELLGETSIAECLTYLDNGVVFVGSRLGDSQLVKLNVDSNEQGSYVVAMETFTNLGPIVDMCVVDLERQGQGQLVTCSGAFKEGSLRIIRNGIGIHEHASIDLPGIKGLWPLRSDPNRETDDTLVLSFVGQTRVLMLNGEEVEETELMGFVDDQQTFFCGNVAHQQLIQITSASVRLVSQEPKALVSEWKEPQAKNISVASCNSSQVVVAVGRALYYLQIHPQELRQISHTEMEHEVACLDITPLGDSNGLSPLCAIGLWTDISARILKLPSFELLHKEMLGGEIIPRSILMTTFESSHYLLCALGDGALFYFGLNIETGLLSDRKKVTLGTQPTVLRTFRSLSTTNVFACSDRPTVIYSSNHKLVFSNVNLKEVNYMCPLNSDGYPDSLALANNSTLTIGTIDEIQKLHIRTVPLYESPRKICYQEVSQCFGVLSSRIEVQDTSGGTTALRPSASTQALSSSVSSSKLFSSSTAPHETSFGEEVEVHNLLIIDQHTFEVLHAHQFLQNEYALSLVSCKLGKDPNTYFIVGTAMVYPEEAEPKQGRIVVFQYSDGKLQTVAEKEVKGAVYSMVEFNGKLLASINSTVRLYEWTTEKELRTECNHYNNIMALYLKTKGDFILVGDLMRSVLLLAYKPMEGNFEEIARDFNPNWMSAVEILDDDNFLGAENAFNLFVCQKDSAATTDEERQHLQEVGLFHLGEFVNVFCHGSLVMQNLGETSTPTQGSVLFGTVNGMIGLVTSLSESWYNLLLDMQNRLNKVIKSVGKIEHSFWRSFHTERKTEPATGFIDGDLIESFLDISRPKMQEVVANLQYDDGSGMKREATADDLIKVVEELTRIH

SMILES: O=C1CC[C@H](N2Cc3cc(C(=O)Nc4cncc5ccccc45)ccc3C2=O)C(=O)N1 (stereo in doubt) [Example 2, 2-(2,6-dioxopiperidin-3-yl)-N-(isoquinolin-4-yl)-1-oxoisoindoline-5-carboxamide]
- IC50 (MV-4-11 cells; [1]): 100 to 1000 nM

SMILES: O=C1CCC(N2Cc3cc(C(=O)N[C@H]4CCc5ccccc54)ccc3C2=O)C(=O)N1 (stereo partly drawn) [Example 1, N—((S)-2,3-dihydro-1H-inden-1-yl)-2-(2,6-dioxopiperidin-3-yl)-1-oxoisoindoline-5-carboxamide]
- IC50 (MV-4-11 cells; [2]): < 100 nM
- inhibition at 1 µM (GSPT1; MV4-11, 6 h): < 50%

SMILES: O=C1CCC(N2Cc3cc(C(=O)Nc4csc5ccccc45)ccc3C2=O)C(=O)N1 (stereo not shown) [Example 8, N-(benzo[b]thiophen-3-yl)-2-(2,6-dioxopiperidin-3-yl)-1-oxoisoindoline-5-carboxamide]
- IC50 (MV-4-11 cells; [1]): < 100 nM
- inhibition at 1 µM (GSPT1; MV4-11, 6 h): > 75%

SMILES: O=C1CCC(N2Cc3cc(C(=O)N4CCc5ccccc54)ccc3C2=O)C(=O)N1 (stereo not shown) [Example 11, 3-(5-(indoline-1-carbonyl)-1-oxoisoindolin-2-yl)piperidine-2,6-dione]
- IC50 (MV-4-11 cells; [2]): < 100 nM
- inhibition at 1 µM (GSPT1; MV4-11, 6 h): > 75%

- IC50 (MV-4-11 cells; [1]): < 100 nM
SMILES: O=C1CCC(N2Cc3cc(C(=O)N4Cc5ccccc5C4)ccc3C2=O)C(=O)N1 (stereo not shown) [Example 12, 3-(5-(isoindoline-2-carbonyl)-1-oxoisoindolin-2-yl)piperidine-2,6-dione]

SMILES: O=C1CCC(N2Cc3cc(C(=O)N4Cc5cccc(C(F)(F)F)c5C4)ccc3C2=O)C(=O)N1 (stereo not shown) [Example 21, 3-(1-oxo-5-(4-(trifluoromethyl)isoindoline-2-carbonyl)isoindolin-2-yl)piperidine-2,6-dione]
- IC50 (MV-4-11 cells; [1]): < 100 nM
- inhibition at 1 µM (GSPT1; [3]): > 75%

SMILES: O=C1CCC(N2Cc3cc(C(=O)N4Cc5ccc(C(F)(F)F)cc5C4)ccc3C2=O)C(=O)N1 (stereo not shown) [Example 22, 3-(1-oxo-5-(5-(trifluoromethyl)isoindoline-2-carbonyl)isoindolin-2-yl)piperidine-2,6-dione]
- IC50 (MV-4-11 cells; [1]): < 100 nM
- inhibition at 1 µM (GSPT1; [3]): > 75%

SMILES: O=C1CCC(N2Cc3cc(C(=O)N4CCc5ncccc54)ccc3C2=O)C(=O)N1 (stereo not shown) [Example 28, 3-(5-(2,3-dihydro-1H-pyrrolo[3,2-b]pyridine-1-carbonyl)-1-oxoisoindolin-2-yl)piperidine-2,6-dione]
- IC50 (MV-4-11 cells; [1]): < 100 nM
- inhibition at 1 µM (GSPT1; [3]): 50 to 75%

SMILES: O=C1CCC(N2Cc3cc(C(=O)N4Cc5ccncc5C4)ccc3C2=O)C(=O)N1 (stereo not shown) [Example 31, 3-(5-(2,3-dihydro-1H-pyrrolo[3,4-c]pyridine-2-carbonyl)-1-oxoisoindolin-2-yl)piperidine-2,6-dione]
- IC50 (MV-4-11 cells; [1]): 100 to 1000 nM
- inhibition at 1 µM (GSPT1; [3]): 50 to 75%

SMILES: O=C1CCC(N2Cc3cc(C(=O)N4CCc5ccc(F)cc54)ccc3C2=O)C(=O)N1 (stereo not shown) [Example 32, 3-(5-(6-fluoroindoline-1-carbonyl)-1-oxoisoindolin-2-yl)piperidine-2,6-dione]
- IC50 (MV-4-11 cells; [1]): < 100 nM
- inhibition at 1 µM (GSPT1; MV4-11, 6 h): > 75%

SMILES: O=C1CCC(N2Cc3cc(C(=O)N4CCc5cc(Cl)cc(F)c54)ccc3C2=O)C(=O)N1 (stereo not shown) [Example 56, 3-(5-(5-chloro-7-fluoroindoline-1-carbonyl)-1-oxoisoindolin-2-yl)piperidine-2,6-dione]
- IC50 (MV-4-11 cells; [1]): 100 to 1000 nM
- inhibition at 1 µM (GSPT1; [3]): 50 to 75%

SMILES: O=C1CCC(N2Cc3cc(C(=O)N4CCc5cc(F)cc(F)c54)ccc3C2=O)C(=O)N1 (stereo not shown) [Example 57, 3-(5-(5,7-difluoroindoline-1-carbonyl)-1-oxoisoindolin-2-yl)piperidine-2,6-dione]
- IC50 (MV-4-11 cells; [1]): 100 to 1000 nM
- inhibition at 1 µM (GSPT1; MV4-11, 6 h): 50 to 75%

SMILES: O=C1CCC(N2Cc3cc(C(=O)Nc4ccsc4)ccc3C2=O)C(=O)N1 (stereo not shown) [Example 58, 2-(2,6-dioxopiperidin-3-yl)-1-oxo-N-(thiophen-3-yl)isoindoline-5-carboxamide]
- IC50 (MV-4-11 cells; [1]): < 100 nM
- inhibition at 1 µM (GSPT1; MV4-11, 6 h): > 75%

SMILES: O=C1CCC(N2Cc3cc(C(=O)Nc4csc5cccnc45)ccc3C2=O)C(=O)N1 (stereo not shown) [Example 59, 2-(2,6-dioxopiperidin-3-yl)-1-oxo-N-(thieno[3,2-b]pyridin-3-yl)isoindoline-5-carboxamide]
- IC50 (MV-4-11 cells; [1]): < 100 nM
- inhibition at 1 µM (GSPT1; [3]): > 75%

SMILES: O=C1CCC(N2Cc3cc(C(=O)Nc4csc5ccncc45)ccc3C2=O)C(=O)N1 (stereo not shown) [Example 60]
- IC50 (MV-4-11 cells; [1]): 100 to 1000 nM
- inhibition at 1 µM (GSPT1; [3]): 50 to 75%

SMILES: O=C1CCC(N2Cc3cc(C(=O)Nc4csc5cnccc45)ccc3C2=O)C(=O)N1 (stereo not shown) [Example 61, 2-(2,6-dioxopiperidin-3-yl)-1-oxo-N-(thieno[2,3-c]pyridin-3-yl)isoindoline-5-carboxamide]
- IC50 (MV-4-11 cells; [1]): < 100 nM
- inhibition at 1 µM (GSPT1; [3]): > 75%

SMILES: O=C1CCC(N2Cc3cc(C(=O)Nc4csc5ncccc45)ccc3C2=O)C(=O)N1 (stereo not shown) [Example 62, 2-(2,6-dioxopiperidin-3-yl)-1-oxo-N-(thieno[2,3-b]pyridin-3-yl)isoindoline-5-carboxamide]
- IC50 (MV-4-11 cells; [1]): > 1000 nM
- inhibition at 1 µM (GSPT1; [3]): < 50%

SMILES: COc1cc(F)c2c(c1)CCN2C(=O)c1ccc2c(c1)CN(C1CCC(=O)NC1=O)C2=O (stereo not shown) [Example 64, 3-(5-(7-fluoro-5-methoxyindoline-1-carbonyl)-1-oxoisoindolin-2-yl)piperidine-2,6-dione]
- IC50 (MV-4-11 cells; MV4-11, TABLE 2, MV-4-11 cells assumed, CellTiter-Glo, 44 hours, read-out: Cell viability classification): < 100 nM

SMILES: O=C1CCC(N2Cc3cc(C(=O)N4CCc5c(F)cccc54)ccc3C2=O)C(=O)N1 (stereo not shown) [Example 74, 3-(5-(4-fluoroindoline-1-carbonyl)-1-oxoisoindolin-2-yl)piperidine-2,6-dione]
- IC50 (MV-4-11 cells; [1]): < 100 nM
- inhibition at 1 µM (GSPT1; MV4-11, 6 h): > 75%

SMILES: O=C1CCC(N2Cc3cc(C(=O)N4CCc5cc(F)ccc54)ccc3C2=O)C(=O)N1 (stereo not shown) [Example 75, 3-(5-(5-fluoroindoline-1-carbonyl)-1-oxoisoindolin-2-yl)piperidine-2,6-dione]
- IC50 (MV-4-11 cells; [1]): < 100 nM
- inhibition at 1 µM (GSPT1; MV4-11, 6 h): > 75%

SMILES: O=C1CCC(N2Cc3cc(C(=O)N4CCc5cccc(F)c54)ccc3C2=O)C(=O)N1 (stereo not shown) [Example 76, 3-(5-(7-fluoroindoline-1-carbonyl)-1-oxoisoindolin-2-yl)piperidine-2,6-dione]
- IC50 (MV-4-11 cells; [1]): 100 to 1000 nM
- inhibition at 1 µM (GSPT1; MV4-11, 6 h): < 50%

SMILES: O=C1CCC(N2Cc3cc(C(=O)N4CCc5c4cccc5C(F)(F)F)ccc3C2=O)C(=O)N1 (stereo not shown) [Example 77, 3-(1-oxo-5-(4-(trifluoromethyl)indoline-1-carbonyl)isoindolin-2-yl)piperidine-2,6-dione]
- IC50 (MV-4-11 cells; [1]): < 100 nM
- inhibition at 1 µM (GSPT1; MV4-11, 6 h): > 75%

SMILES: O=C1CCC(N2Cc3cc(C(=O)N4CCc5cc(C(F)(F)F)ccc54)ccc3C2=O)C(=O)N1 (stereo not shown) [Example 78, 3-(1-oxo-5-(5-(trifluoromethyl)indoline-1-carbonyl)isoindolin-2-yl)piperidine-2,6-dione]
- IC50 (MV-4-11 cells; [1]): 100 to 1000 nM
- inhibition at 1 µM (GSPT1; MV4-11, 6 h): 50 to 75%

SMILES: O=C1CCC(N2Cc3cc(C(=O)N4CCc5ccc(C(F)(F)F)cc54)ccc3C2=O)C(=O)N1 (stereo not shown) [Example 79, 3-(1-oxo-5-(6-(trifluoromethyl)indoline-1-carbonyl)isoindolin-2-yl)piperidine-2,6-dione]
- IC50 (MV-4-11 cells; [1]): 100 to 1000 nM
- inhibition at 1 µM (GSPT1; MV4-11, 6 h): 50 to 75%

SMILES: O=C1CCC(N2Cc3cc(C(=O)N4CCc5cc(OC(F)(F)F)ccc54)ccc3C2=O)C(=O)N1 (stereo not shown) [Example 80, 3-(1-oxo-5-(5-(trifluoromethoxy)indoline-1-carbonyl)isoindolin-2-yl)piperidine-2,6-dione]
- IC50 (MV-4-11 cells; [1]): 100 to 1000 nM
- inhibition at 1 µM (GSPT1; MV4-11, 6 h): 50 to 75%

- IC50 (MV-4-11 cells; [4]): > 1000 nM
SMILES: O=C1CCN(c2ccc3ccc(C(=O)N4CCc5cccc(F)c54)cc3c2)C(=O)N1 [Example 118, 1-(7-(7-fluoroindoline-1-carbonyl)naphthalen-2-yl)dihydropyrimidine-2,4(1H,3H)-dione]

- IC50 (MV-4-11 cells; [4]): > 1000 nM
SMILES: O=C1CCN(c2ccc3ccc(C(=O)N4CCc5cc(F)ccc54)cc3c2)C(=O)N1 [Example 119, 1-(7-(5-fluoroindoline-1-carbonyl)naphthalen-2-yl)dihydropyrimidine-2,4(1H,3H)-dione]

SMILES: O=C1CCN(c2ccc3ccc(C(=O)N4CCc5ccccc54)cc3c2)C(=O)N1 [Example 120, 1-(7-(indoline-1-carbonyl)naphthalen-2-yl)dihydropyrimidine-2,4(1H,3H)-dione]
- IC50 (MV-4-11 cells; [4]): > 1000 nM

- IC50 (MV-4-11 cells; [4]): 100 to 1000 nM
SMILES: O=C1CCN(c2ccc3ccc(C(=O)N4Cc5ccccc5C4)cc3c2)C(=O)N1 [Example 125, 1-(7-(isoindoline-2-carbonyl)naphthalen-2-yl)dihydropyrimidine-2,4(1H,3H)-dione]

- IC50 (MV-4-11 cells; [4]): > 1000 nM
SMILES: O=C1CCN(c2ccc3ccc(C(=O)N4CCc5c(F)cccc54)cc3c2)C(=O)N1 [Example 126, 1-(7-(4-fluoroindoline-1-carbonyl)naphthalen-2-yl)dihydropyrimidine-2,4(1H,3H)-dione]

- IC50 (MV-4-11 cells; [4]): 100 to 1000 nM
SMILES: O=C1CCN(c2ccc3ccc(C(=O)N4Cc5cccc(F)c5C4)cc3c2)C(=O)N1 [Example 127, 1-(7-(4-fluoroisoindoline-2-carbonyl)naphthalen-2-yl)dihydropyrimidine-2,4(1H,3H)-dione]

- IC50 (MV-4-11 cells; [4]): > 1000 nM
SMILES: O=C1CCN(c2ccc3ccc(C(=O)N4CCCc5ccccc54)cc3c2)C(=O)N1 [Example 128, 1-(7-(1,2,3,4-tetrahydroquinoline-1-carbonyl)naphthalen-2-yl)dihydropyrimidine-2,4(1H,3H)-dione]

SMILES: O=C1CCN(c2ccc3ccc(C(=O)N4CCc5ccccc5C4)cc3c2)C(=O)N1 [Example 129, 1-(7-(1,2,3,4-tetrahydroisoquinoline-2-carbonyl)naphthalen-2-yl)dihydropyrimidine-2,4(1H,3H)-dione]
- IC50 (MV-4-11 cells; [4]): > 1000 nM

Source: patent US20260285872A1, “COMPOUNDS AND METHODS FOR DEGRADING GSPT1” (priority 2023, published 2026)
